From patent US20230399311A1, “POLYMORPHS OF SUBSTITUTED ISOQUINOLINE-BASED RHO KINASE INHIBITORS” (BioAxone BioSciences, Inc., priority 2022, published 2023)

Key:
[1] = pH-dependent stability in buffer solutions; type: physicochemical
Description: The solutions were stored in vials at 25° C., 40° C., and 60° C. […] Purity was measured by HPLC.

[2] = Partition coefficient, octanol/water; type: physicochemical
Description: The partition coefficient of NRL-1049 adipate was determined according to the following procedure. In a 500 mL separation funnel, 120 mL water and 120 mL octanol were combined, mixed well, and allowed to separate into two layers. Approximately 100 mL of the organic phase layer and approximately 100 mL from the aqueous phase layer were removed and utilized in the following steps. Three 100 mL separation funnels were labeled as Sample 1, Sample 2, and Sample 3. […] The P values were as follows: Sample 1=0.0053, Sample 2=0.0049, Sample 3=0.0050.

- Appearance ([1]; Acetate Buffer, 1 Wk, 25° C.): No change
- Purity (% Area) ([1]; Acetate Buffer, 1 Wk, 25° C.): 99.7 % Area
- pH ([1]; Acetate Buffer, 1 Wk, 25° C.): 4.8
- Appearance ([1]; Acetate Buffer, 1 Wk, 40° C.): No change
- Purity (% Area) ([1]; Acetate Buffer, 1 Wk, 40° C.): 99.7 % Area
- pH ([1]; Acetate Buffer, 1 Wk, 40° C.): 4.7
- Appearance ([1]; Acetate Buffer, 1 Wk, 60° C.): No change
- Purity (% Area) ([1]; Acetate Buffer, 1 Wk, 60° C.): 99.8 % Area
- pH ([1]; Acetate Buffer, 1 Wk, 60° C.): 4.7
- Appearance ([1]; Acetate Buffer, 2 Wk, 25° C.): No change
- Purity (% Area) ([1]; Acetate Buffer, 2 Wk, 25° C.): 99.7 % Area
- pH ([1]; Acetate Buffer, 2 Wk, 25° C.): 4.6
- Appearance ([1]; Acetate Buffer, 2 Wk, 40° C.): No change
- Purity (% Area) ([1]; Acetate Buffer, 2 Wk, 40° C.): 99.7 % Area
- pH ([1]; Acetate Buffer, 2 Wk, 40° C.): 4.5
- Appearance ([1]; Acetate Buffer, 2 Wk, 60° C.): No change
- Purity (% Area) ([1]; Acetate Buffer, 2 Wk, 60° C.): 99.7 % Area
- pH ([1]; Acetate Buffer, 2 Wk, 60° C.): 4.5
- Appearance ([1]; Acetate Buffer, 3 Wk, 25° C.): No change
- Purity (% Area) ([1]; Acetate Buffer, 3 Wk, 25° C.): 99.6 % Area
- pH ([1]; Acetate Buffer, 3 Wk, 25° C.): 4.6
- Appearance ([1]; Acetate Buffer, 3 Wk, 40° C.): No change
- Purity (% Area) ([1]; Acetate Buffer, 3 Wk, 40° C.): 99.7 % Area
- pH ([1]; Acetate Buffer, 3 Wk, 40° C.): 4.5
- Appearance ([1]; Acetate Buffer, 3 Wk, 60° C.): No change
- Purity (% Area) ([1]; Acetate Buffer, 3 Wk, 60° C.): 99.6 % Area
- pH ([1]; Acetate Buffer, 3 Wk, 60° C.): 4.5
- Appearance ([1]; Acetate Buffer, Time 0): Clear
- Purity (% Area) ([1]; Acetate Buffer, Time 0): 99.8 % Area
- pH ([1]; Acetate Buffer, Time 0): 4.6
- Appearance ([1]; Hydroxide Buffer, 1 Wk, 25° C.): No change
- Purity (% Area) ([1]; Hydroxide Buffer, 1 Wk, 25° C.): 99.7 % Area
- pH ([1]; Hydroxide Buffer, 1 Wk, 25° C.): 1.4
- Appearance ([1]; Hydroxide Buffer, 1 Wk, 40° C.): No change
- Purity (% Area) ([1]; Hydroxide Buffer, 1 Wk, 40° C.): 99.8 % Area
- pH ([1]; Hydroxide Buffer, 1 Wk, 40° C.): 1.4
- Appearance ([1]; Hydroxide Buffer, 1 Wk, 60° C.): No change
- Purity (% Area) ([1]; Hydroxide Buffer, 1 Wk, 60° C.): 99.6 % Area
- pH ([1]; Hydroxide Buffer, 1 Wk, 60° C.): 1.3
- Appearance ([1]; Hydroxide Buffer, 2 Wk, 25° C.): No change
- Purity (% Area) ([1]; Hydroxide Buffer, 2 Wk, 25° C.): 99.7 % Area
- pH ([1]; Hydroxide Buffer, 2 Wk, 25° C.): 1.4
- Appearance ([1]; Hydroxide Buffer, 2 Wk, 40° C.): No change
- Purity (% Area) ([1]; Hydroxide Buffer, 2 Wk, 40° C.): 99.6 % Area
- pH ([1]; Hydroxide Buffer, 2 Wk, 40° C.): 1.4
- Appearance ([1]; Hydroxide Buffer, 2 Wk, 60° C.): No change
- Purity (% Area) ([1]; Hydroxide Buffer, 2 Wk, 60° C.): 99.6 % Area
- pH ([1]; Hydroxide Buffer, 2 Wk, 60° C.): 1.3
- Appearance ([1]; Hydroxide Buffer, 3 Wk, 25° C.): No change
- Purity (% Area) ([1]; Hydroxide Buffer, 3 Wk, 25° C.): 99.6 % Area
- pH ([1]; Hydroxide Buffer, 3 Wk, 25° C.): 1.4
- Appearance ([1]; Hydroxide Buffer, 3 Wk, 40° C.): No change
- Purity (% Area) ([1]; Hydroxide Buffer, 3 Wk, 40° C.): 99.6 % Area
- pH ([1]; Hydroxide Buffer, 3 Wk, 40° C.): 1.4
- Appearance ([1]; Hydroxide Buffer, 3 Wk, 60° C.): No change
- Purity (% Area) ([1]; Hydroxide Buffer, 3 Wk, 60° C.): 99.6 % Area
- pH ([1]; Hydroxide Buffer, 3 Wk, 60° C.): 1.3
- Appearance ([1]; Hydroxide Buffer, Time 0): Clear
- Purity (% Area) ([1]; Hydroxide Buffer, Time 0): 99.7 % Area
- pH ([1]; Hydroxide Buffer, Time 0): 1.3
- Appearance ([1]; Phosphate Buffer, 1 Wk, 25° C.): No change
- Purity (% Area) ([1]; Phosphate Buffer, 1 Wk, 25° C.): 99.4 % Area
- pH ([1]; Phosphate Buffer, 1 Wk, 25° C.): 7.0
- Appearance ([1]; Phosphate Buffer, 1 Wk, 40° C.): No change
- Purity (% Area) ([1]; Phosphate Buffer, 1 Wk, 40° C.): 95.9 % Area
- pH ([1]; Phosphate Buffer, 1 Wk, 40° C.): 7.0
- Appearance ([1]; Phosphate Buffer, 1 Wk, 60° C.): No change
- Purity (% Area) ([1]; Phosphate Buffer, 1 Wk, 60° C.): 91.3 % Area
- pH ([1]; Phosphate Buffer, 1 Wk, 60° C.): 6.9
- Appearance ([1]; Phosphate Buffer, 2 Wk, 25° C.): No change
- Purity (% Area) ([1]; Phosphate Buffer, 2 Wk, 25° C.): 95.4 % Area
- pH ([1]; Phosphate Buffer, 2 Wk, 25° C.): 6.7
- Appearance ([1]; Phosphate Buffer, 2 Wk, 40° C.): No change
- Purity (% Area) ([1]; Phosphate Buffer, 2 Wk, 40° C.): 94.4 % Area
- pH ([1]; Phosphate Buffer, 2 Wk, 40° C.): 6.7
- Appearance ([1]; Phosphate Buffer, 2 Wk, 60° C.): No change
- Purity (% Area) ([1]; Phosphate Buffer, 2 Wk, 60° C.): 83.0 % Area
- pH ([1]; Phosphate Buffer, 2 Wk, 60° C.): 6.7
- Appearance ([1]; Phosphate Buffer, 3 Wk, 25° C.): No change
- Purity (% Area) ([1]; Phosphate Buffer, 3 Wk, 25° C.): 94.9 % Area
- pH ([1]; Phosphate Buffer, 3 Wk, 25° C.): 6.7
- Appearance ([1]; Phosphate Buffer, 3 Wk, 40° C.): No change
- Purity (% Area) ([1]; Phosphate Buffer, 3 Wk, 40° C.): 91.4 % Area
- pH ([1]; Phosphate Buffer, 3 Wk, 40° C.): 6.7
- Appearance ([1]; Phosphate Buffer, 3 Wk, 60° C.): No change
- Purity (% Area) ([1]; Phosphate Buffer, 3 Wk, 60° C.): 78.8 % Area
- pH ([1]; Phosphate Buffer, 3 Wk, 60° C.): 6.8
- Appearance ([1]; Phosphate Buffer, Time 0): Clear
- Purity (% Area) ([1]; Phosphate Buffer, Time 0): 99.5 % Area
- pH ([1]; Phosphate Buffer, Time 0): 6.7
- Stability as a function of pH (in words) ([1]; pH 1.2 solution): most stable
- Stability as a function of pH (in words) ([1]; pH 6.8 buffer): least stable
- Partition coefficient P (organic phase/aqueous phase) ([2]; Sample 1: 40 mL aqueous phase, 10 mL organic phase (octanol/water)): 0.0053
- Partition coefficient P (organic phase/aqueous phase) ([2]; Sample 2: 25 mL aqueous phase, 25 mL organic phase (octanol/water)): 0.0049
- Partition coefficient P (organic phase/aqueous phase) ([2]; Sample 3: 10 mL aqueous phase, 40 mL organic phase (octanol/water)): 0.0050
- Hydrophilicity (in words) ([2]; from octanol/water P values): highly hydrophilic
Structure (SMILES): C[C@@H](N)C1CCN(S(=O)(=O)c2cccc3cnccc23)CC1.O=C(O)CCCCC(=O)O [NRL-1049 Adipate]
